Test results: patent publication US12324769B1, “Double-network versatile hydrogel with antibacterial and drug sequential release capabilities” (Eye Institute of Shandong First Medical University, priority 2023, dated 2025)

Experiments:
Raw264.7 cells = assay: macrophage cytoskeleton staining after LPS/IFN-γ induced M1 polarization; format: cell-based; settings: M1-induced Raw264.7, cytoskeleton staining
Protocol: The anti-inflammatory properties of SQPV hydrogel prepared in Embodiment 1, SQP hydrogel prepared in Comparative embodiment 1 and SQ hydrogel prepared in Comparative embodiment 2 are investigated. […] Therefore, regulating inflammatory response has become the key focus of developing ideal corneal substitutes. […] In this present disclosure, Raw264.7 cells are inoculated on a 6-well plate for 24 h, and then stimulated with LPS (100 nanograms per milliliter (ng/mL)) and interferon gamma (IFN-γ) (20 ng/mL) for 24 h to induce M1 polarization. Then, fresh hydrogel leaching solution is added, and after 24 h, the cytoskeleton is stained with CLSM to observe the morphological changes of macrophages.

[1] = cumulative release of PDRN and verteporfin in PBS at 37° C.; format: physicochemical; settings: from SQPV hydrogel

Substance | macrophage polarization (Raw264.7 cells) | time until almost all encapsulated PDRN is released [1] [days] | cumulative release of verteporfin ([1]; after 28 days of incubation) [%]
polydeoxyribonucleotide [PDRN] | promotes macrophages to have M1 to M2 transformation | ≤ 7 | 
verteporfin [reference compound] |  |  | 72
